The test system of one data set is COS-7. Nature of the data set: Cytotoxicity against african green monkey COS-7 cells assessed as effect on metabolic activity at 10 uM incubated for 72 hrs by MTT assay. The class given is toxicity, cell-based. The note with it: chlorocebus aethiops, cos-7, 72 h. For orientation: Tetrazolium assays rely on reduction of a dye to a coloured formazan, in cell work by metabolically active cells.

Data set [1] in a line: Stability of the compound assessed as Pseudomonas aeruginosa Amidase-mediated hydrolysis at 800 uM measured after 24 hrs by HPLC analysis. The class given is ADME. The note with it: isolated protein.
Data set [2] can be described thus: Retention time of compound by HPLC analysis. The class given is physicochemical.
Data set [3] in a line: Stability of compound in PBS buffer incubated for 8 to 24 hrs by HPLC analysis. The class given is physicochemical. The note with it: time 8-24 hrs.
The next data set has as its target T1, Liver carboxylesterase (Sus scrofa, UniProt Q29550).
T1 sequence (Q29550 whole entry): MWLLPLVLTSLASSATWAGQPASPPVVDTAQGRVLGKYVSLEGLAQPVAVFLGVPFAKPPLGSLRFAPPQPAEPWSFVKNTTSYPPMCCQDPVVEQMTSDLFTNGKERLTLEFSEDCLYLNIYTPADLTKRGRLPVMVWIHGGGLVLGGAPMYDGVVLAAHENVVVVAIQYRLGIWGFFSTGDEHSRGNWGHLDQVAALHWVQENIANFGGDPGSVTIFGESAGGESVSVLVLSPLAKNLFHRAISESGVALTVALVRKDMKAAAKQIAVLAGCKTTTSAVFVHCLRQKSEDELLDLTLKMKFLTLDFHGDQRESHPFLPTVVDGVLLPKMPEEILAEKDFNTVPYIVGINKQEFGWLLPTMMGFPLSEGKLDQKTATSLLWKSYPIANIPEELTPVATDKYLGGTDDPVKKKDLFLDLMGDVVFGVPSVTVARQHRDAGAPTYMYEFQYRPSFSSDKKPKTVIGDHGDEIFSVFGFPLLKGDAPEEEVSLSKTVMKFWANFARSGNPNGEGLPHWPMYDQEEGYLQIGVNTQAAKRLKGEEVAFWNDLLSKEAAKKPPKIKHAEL
Briefly: Stability of the compound assessed as porcine liver esterase-mediated hydrolysis at 800 uM measured after 180 mins by HPLC analysis. Format: ADME. The note with it: pig, isolated protein, 3 h.

The test system of a further data set is amidase. Briefly: Stability of the compound assessed as Pseudomonas aeruginosa Amidase-mediated hydrolysis by measuring half life at 800 uM measured after 24 hrs by HPLC analysis. Format: ADME.
Data set [4] is described as follows: Cytotoxicity against human HS5 cells assessed as effect on metabolic activity at 10 uM incubated for 72 hrs by MTT assay. The note with it: hs5, 72 h. The class given is toxicity, cell-based.
Data set [5] relates to K562. Briefly: Re-sensitization of human K562 cells to imatinib assessed as reduction in metabolic activity by measuring maximal sensitizing concentration in presence of imatinib by EZ4U assay. The note with it: read-out: EC50. Format: functional, cell-based.
For data set [6], the system named is K562. Nature of the data set: Re-sensitization of human K562 cells to imatinib assessed as reduction in metabolic activity at 5 uM in presence of 1 uM imatinib by EZ4U assay. Format: functional, cell-based.
A short description of data set [7]: Drug uptake in human Imatinib-resistant K562 cells assessed as increase in fluorescent intensity measured after 1 to 24 hrs by coomassie brilliant blue staining based analysis. The class given is ADME, cell-based. The note with it: k562-ima[r], time 1-24 hrs.
Data set [8] can be described thus: Drug uptake in human Imatinib-resistant K562 cells assessed as increase in fluorescent intensity measured after 24 hrs by coomassie brilliant blue staining based analysis. The class given is ADME, cell-based. The note with it: k562-ima[r].
The subject of a further data set is K562-IMA[r]. Briefly: Cytotoxicity against human Imatinib-resistant K562 cells assessed as effect on metabolic activity at 10 uM incubated for 72 hrs by MTT assay. The class given is functional, cell-based.
Data set [9] is described as follows: Stability in cell culture medium containing fetal bovine serum assessed as compound remaining at 200 uM at 37 degreeC measured after 72 hrs by RP-HPLC analysis. The class given is ADME, cell-free. The note with it: cattle, read-out: Stability.
Data set [10] can be described thus: Stability of the compound assessed as Pseudomonas aeruginosa Amidase-mediated hydrolysis at 800 uM measured after 6 hrs by HPLC analysis. The class given is ADME. The note with it: isolated protein.
Data set [11] can be described thus: Drug uptake in human Imatinib-resistant K562 cells assessed as increase in fluorescent intensity measured after 3 hrs by coomassie brilliant blue staining based analysis. The class given is ADME, cell-based. The note with it: k562-ima[r].
The nature of data set [12]: Drug uptake in human Imatinib-resistant K562 cells assessed as increase in fluorescent intensity measured after 1 hr by coomassie brilliant blue staining based analysis. Format: ADME, cell-based. The note with it: k562-ima[r].
A short description of data set [13]: Drug uptake in human Imatinib-resistant K562 cells assessed as increase in fluorescent intensity measured at 24 hrs by coomassie brilliant blue staining based analysis. The class given is ADME, cell-based. The note with it: k562-ima[r].

Calls of active or inactive are those of the source. The rule behind the calls is not given here.

The half-life is the time in which the quantity being followed falls by half. For `CCCc1nc2ccccc2n1Cc1ccc(-c2ccccc2C(=O)NC)cc1`, the Activity entry (in the data set on COS-7; in data set [4]) was “Non-toxic” in each case. Besides, the Stability result (in data set [1]; in data set [3]; on Liver carboxylesterase) was “Stable” each time. Moreover, the Retention_time in data set [2] is on record as 9.9 min. Also, the half-life at 800 µM in the data set with amidase was 2020 min. The maximal sensitizing concentration in the data set with K562 [5] is 11.2 µM. Further, the outcome with K562 [6] and in the data set on K562-IMA[r] was inactive. Moreover, the Drug uptake entry in data set [7] and in data set [8] was “Not_active” throughout. Besides, in [9], the remaining at 72 h, 200 µM came to 93.4%.

As to `CCCc1nc2ccccc2n1Cc1ccc(-c2ccccc2C(=O)Nc2ccccc2)cc1`, the Stability result (in data set [10]; in [3]; at Liver carboxylesterase) was “Stable” in each case. For the same compound, the Activity result (in the data set on COS-7; in data set [4]) was “Non-toxic” in each case. The values for the Drug uptake in data set [11], in [12] and in [13] were 2.7 nmol/mg, 1.9 nmol/mg and 14.5 nmol/mg, respectively. Besides, the Retention_time in [2] was 12 min. In addition, the maximal sensitizing concentration in the data set with K562 [5] turned out to be 1.6 µM. Also, the result in the data set with K562 [6] was Active. Moreover, the result in the data set on K562-IMA[r] was inactive. In data set [9], the remaining at 72 h, 200 µM turned out to be 98.4%.

The record behind these values is ChEMBL document CHEMBL6078682, “Circumventing Imatinib resistance in CML: Novel Telmisartan-based cell death modulators with improved activity and stability” (Eur J Med Chem, 2025).
